system: ADP-induced aggregation of platelets in human PRP; assay: animal or person; settings: Platelet, po, read-out: ID50 (dose administered orally that inhibits by 50% the ADP-induced ex vivo aggregation of platelets in human PRP)

Structure (SMILES)	ED50 [mg/kg]
C[C@H](NC(=O)c1ccc(C(=N)N)cc1)C(=O)c1ccc(OCC(=O)OCC2CC2)cc1 [Example 3, cyclopropylmethyl (S)-4-[2-[4-(amino-imino-methyl)-benzoylamino]-propionyl]-phenoxyacetate]	2.7
CCOC(=O)COc1ccc(C(=O)[C@H](CO)NC(=O)c2ccc(C(=N)N)cc2)cc1 [Example 9, ethyl (S)-4-[2-[4-(amino-imino-methyl)-benzoylamino]-3-hydroxy-propionyl]-phenoxyacetate]	1.4
CCOC(=O)COc1ccc(C(=O)[C@H](C)NC(=O)c2ccc(C(=N)NC(=O)OC3CCOCC3)cc2)cc1 [Example 38, ethyl (S)-4-[2-[4-[imino-(tetrahydro-pyran-4-yloxy-carbonylamino)-methyl]-benzoylamino]-propionyl]-phenoxyacetate]	2.9
CC(C)COC(=O)NC(=N)c1ccc(C(=O)CC(C)C(=O)N2CCC(OCC(=O)OC(C)C)CC2)cc1 (racemic) [Example 85, isopropyl (RS)-[1-[4-[4-(Isobutoxycarbonylamino-imino-methyl)-phenyl]-2-methyl-4-oxo-butyryl]-piperidin-4-yloxy]-acetate]	0.4
CCOC(=O)N=C(N)c1ccc(C(=O)N[C@@H](C)C(=O)N2CCC(OCC(=O)OC(C)C)CC2)cc1 (mixture of isomers) [Example 60, isopropyl (E/Z)-(S)-1-[2-[4-(amino-ethoxycarbonylimino-methyl)-benzoylamino]-propionyl]-piperidin-4-yloxyacetate]	0.3
COc1ccc(C[C@H](NC(=O)c2ccc(C(=N)N)cc2)C(=O)c2ccc(OCC(=O)O)cc2)cc1 [Example 11, (S)-4-[2-[4-(amino-imino-methyl)-benzoylamino]-3-(4-methoxy-phenyl)-propionyl]-phenoxyacetic acid]	3.1
CCOC(=O)COc1ccc(C(=O)[C@H](C)NC(=O)c2ccc(C(=N)NC(=O)Oc3ccccc3)cc2)cc1 [Example 36, ethyl (S)-4-[2-[4-(imino-phenoxycarbonylamino-methyl)-benzoylamino]-propionyl]-phenoxyacetate]	0.5
CC(C)OC(=O)COC1CCN(C(=O)[C@H](C)NC(=O)c2ccc(C(N)=NO)cc2)CC1 (mixture of isomers) [Example 76, isopropyl (E/Z)-(S)-1-[2-[4-(amino-hydroxyimino-methyl)-benzoylamino]-propionyl]-piperidin-4-yloxyacetate]	0.2
CCOC(=O)N=C(N)c1ccc(C(=O)N[C@@H](Cc2ccc(OC(=O)c3ccccc3N)cc2)C(=O)N2CCC(OCC(=O)OC(C)C)CC2)cc1 (mixture of isomers) [Example 50, (E/Z)-(S)-4-[2-[4-(amino-ethoxycarbonylimino-methyl)-benzoylamino]-3-(4-isopropoxy-carbonylmethoxy-piperidin-1-yl)-3-oxo-propyl]-phenyl 2-amino-benzoate]	1.3
C[C@H](NC(=O)c1ccc(C(=N)N)cn1)C(=O)N1CCC(OCC(=O)OC2CCOCC2)CC1 [Example 63, tetrahydropyran-4-yl (S)-1-[2-(5-amino-imino-methyl-pyridin-2-ylcarbonylamino)-propionyl]-piperidin-4-yloxy-acetate]	1.1
CCOC(=O)COc1ccc(C(=O)[C@@H](NC(=O)c2ccc(C(=N)N)cc2)[C@@H](C)O)cc1 [Example 20, ethyl (2S,3R)-4-[2-[4-(amino-imino-methyl)-benzoylamino]-3-hydroxy-butyryl]-phenoxyacetate]	2.4
CCOC(=O)COc1ccc(C(=O)[C@H](C)NC(=O)c2ccc(C(=N)NC(=O)OCCOC)cc2)cc1 [Example 28, ethyl (S)-4-[2-[4-[imino-2-(methoxy-ethoxycarbonylamino)-methyl]-benzoylamino]-propionyl]-phenoxyacetate]	0.3
CCOC(=O)N=C(N)c1ccc(C(=O)N[C@@H](Cc2ccc(OC(=O)c3ccco3)cc2)C(=O)N2CCC(OCC(=O)OC(C)C)CC2)cc1 (mixture of isomers) [Example 51, (E/Z)-(S)-4-[2-[4-(amino-ethoxycarbonylimino-methyl)-benzoylamino]-3-(4-isopropoxy-carbonylmethoxy-piperidin-1-yl)-3-oxo-propyl]-phenyl furan-2-carboxylate]	3.9
COc1ccc(C[C@H](NC(=O)c2ccc(CN)cn2)C(=O)N2CCC(OCC(=O)OC(C)C)CC2)cc1 [Example 72, isopropyl (S)-1-[2-(5-aminomethyl-pyridin-2-ylcarbonylamino)-3-(4-methoxy-phenyl)-propionyl]-piperidin-4-yloxyacetate]	2.7
CCOC(=O)COc1ccc(C(=O)C(C)NC(=O)c2ccc(C(N)=NOC(=O)OCC)cc2)cc1 (racemic) [Example 35, ethyl (Z)-(R,S)-4-[2-[4-[amino-ethoxycarbonyloximino-methyl]-benzoylamino]-propionyl]-phenoxyacetate]	0.5
CCOC(=O)COc1ccc(C(=O)C(CSC)NC(=O)c2ccc(C(=N)NC(=O)OCC)cc2)cc1 (racemic) [Example 27, ethyl (R,S)-4-[2-[4-(ethoxycarbonylamino-imino-methyl)-benzoylamino]-3-methylsulphanyl-propionyl]-phenoxyacetate]	4.3
CCOC(=O)N=C(N)c1ccc(C(=O)N[C@@H](Cc2ccc(OC(=O)OCC)cc2)C(=O)N2CCC(OCC(=O)OC(C)C)CC2)cc1 (mixture of isomers) [Example 49, Isopropyl (E/Z)-(S)-1-[2-[4-(amino-ethoxycarbonylimino-methyl)-benzoylamino]-3-(4-ethoxycarbonyloxy-phenyl)-propionyl]-piperidin-4-yloxyacetate]	1.2
CCOC(=O)COc1ccc(C(=O)[C@H](C)NC(=O)COC2CCNCC2)cc1 [Example 29, ethyl (S)-4-(2-piperidin-4-yloxyacetylamino-propionyl)-phenoxyacetate]	1
CCOC(=O)NC(=N)c1ccc(C(=O)N[C@@H](C)C(=O)c2ccc(OCC(=O)OC3CCOCC3)cc2)cc1 [Example 33, tetrahydropyran-4-yl (S)-4-[2-[4-(ethoxycarbonylamino-imino-methyl)-benzoylamino]-propionyl]-phenoxyacetate]	0.6
CCOC(=O)COc1ccc(C(=O)[C@H](COC(C)=O)NC(=O)c2ccc(C(=N)N)cc2)cc1 [Example 24, ethyl (S)-4-[2-[4-(amino-imino-methyl)-benzoylamino]-3-acetoxy-propionyl]-phenoxy-acetate]	2.3
CCOC(=O)COc1ccc(C(=O)C(C)NC(=O)c2ccc(C(N)=NO)cc2)cc1 (racemic) [Example 32, ethyl (Z)-(R,S)-4-[2-[4-[amino-hydroxyimino-methyl]-benzoylamino]-propionyl]-phenoxyacetate]	0.2
CCOC(=O)NC(=N)c1ccc(C(=O)CCC(=O)N2CCC(OCC(=O)OC(C)C)CC2)cc1 [Example 80, isopropyl [1-[4-[4-(ethoxycarbonylamino-imino-methyl)-phenyl]-4-oxo-butyryl]-piperidin-4-yloxy]-acetate]	0.7
COCCOC(=O)COc1ccc(C(=O)[C@H](C)NC(=O)c2ccc(C(=N)NC(=O)OCCOC)cc2)cc1 [Example 40, 2-methoxy-ethyl (S)-^4-[2-[4-[imino-(2-methoxy-ethoxy-carbonylamino)-methyl]-benzoylamino]-propionyl]-phenoxyacetate]	0.6
C[C@H](NC(=O)c1ccc(C(=N)N)cc1)C(=O)c1ccc(OCC(=O)OC2CCCCC2)cc1 [Example 4, cyclohexyl (S)-4-[2-[4-(amino-imino-methyl)-benzoylamino]-propionyl]-phenoxyacetate]	2.1
CCOC(=O)N=C(N)c1ccc(C(=O)N[C@@H](Cc2ccc(OC(=O)c3ccccc3OC(C)=O)cc2)C(=O)N2CCC(OCC(=O)OC(C)C)CC2)cc1 (mixture of isomers) [Example 53, (E/Z)-(S)-4-[2-[4-(amino-ethoxycarbonylimino-methyl)-benzoylamino]-3-(4-isopropoxy-carbonylmethoxy-piperidin-1-yl)-3-oxo-propyl]-phenyl 2-acetoxy-benzoate]	1.5
COCCOC(=O)COc1ccc(C(=O)[C@H](C)NC(=O)c2ccc(C(=N)N)cc2)cc1 [Example 22, 2-methoxy-ethyl (S)-4-[2-[4-(amino-imino-methyl)-benzoylamino]-propionyl]-phenoxyacetate]	1.8
CCOC(=O)COc1ccc(C(=O)[C@H](C)NC(=O)c2ccc(/C(N)=N/O)cc2)cc1 [Example 41, ethyl (Z)-(S)-4-[2-[4-(amino-hydroxyimino-methyl)-benzoylamino]-propionyl]-phenoxyacetate]	0.2

— patent publication US5973188A (priority 1993, dated 1999)
